Results published in US20260027116A1, “Methods of Treating Chronic Graft-Versus-Host Disease Following Allogeneic Hematopoietic Stem Cell Transplantation” (Kadmon Corporation, LLC, priority 2022, published 2026).
Entries after “also recorded” stand apart in the source; their conditions may differ. Where two headings read alike, the source gives them in different places.

System: patients with cGVHD
Description: All responses were assessed by the investigators.
Reported Adverse Events. […] All-cause mortality data collected during the study were assessed for all enrolled participants. Disease progression related death was not reported as AE.
Number of Participants With Treatment-emergent Adverse Events (TEAEs), and Treatment-emergent Serious Adverse Events (TESAEs). […] TEAEs included both SAEs and non-SAEs. […] Analysis was performed on safety population which included all participants who received at least 1 dose of study medication.

CC(C)NC(=O)COc1cccc(-c2nc(Nc3ccc4[nH]ncc4c3)c3ccccc3n2)c1 [Belumosudil, 2-{3-[4-(1H-indazol-5-ylamino)-2-quinazolinyl]phenoxy}-N-(propan-2-yl) acetamide]
Pleural effusion: Affected/At Risk (%) (Cohort 3 400 mg QD): 1/21 (4.76%)
Pneumonia respiratory syncytial viral: # Events (Cohort 3 400 mg QD): 0
Pneumonia respiratory syncytial viral: Affected/At Risk (%) (Cohort 3 400 mg QD): 0/21 (0%)
Pneumonia: # Events (Cohort 3 400 mg QD): 0
Pneumonia: Affected/At Risk (%) (Cohort 3 400 mg QD): 0/21 (0%)
Pollakiuria: # Events (Cohort 3 400 mg QD): 0
Pollakiuria: Affected/At Risk (%) (Cohort 3 400 mg QD): 0/21 (0%)
Presyncope: # Events (Cohort 3 400 mg QD): 0
Presyncope: Affected/At Risk (%) (Cohort 3 400 mg QD): 0/21 (0%)
Productive cough: # Events (Cohort 3 400 mg QD): 2
Productive cough: Affected/At Risk (%) (Cohort 3 400 mg QD): 1/21 (4.76%)
Proteinuria: # Events (Cohort 3 400 mg QD): 0
Proteinuria: Affected/At Risk (%) (Cohort 3 400 mg QD): 0/21 (0%)
Pruritus: # Events (Cohort 3 400 mg QD): 0
Pruritus: Affected/At Risk (%) (Cohort 3 400 mg QD): 0/21 (0%)
Pseudomonas infection: # Events (Cohort 3 400 mg QD): 0
Pseudomonas infection: Affected/At Risk (%) (Cohort 3 400 mg QD): 0/21 (0%)
Pulmonary mass: # Events (Cohort 3 400 mg QD): 1
Pulmonary mass: Affected/At Risk (%) (Cohort 3 400 mg QD): 1/21 (4.76%)
Pyrexia: # Events (Cohort 3 400 mg QD): 3
Pyrexia: Affected/At Risk (%) (Cohort 3 400 mg QD): 3/21 (14.29%)
Rash erythematous: # Events (Cohort 3 400 mg QD): 0
Rash erythematous: Affected/At Risk (%) (Cohort 3 400 mg QD): 0/21 (0%)
Rash maculo-papular: # Events (Cohort 3 400 mg QD): 0
Rash maculo-papular: Affected/At Risk (%) (Cohort 3 400 mg QD): 0/21 (0%)
Rash pustular: # Events (Cohort 3 400 mg QD): 0
Rash pustular: Affected/At Risk (%) (Cohort 3 400 mg QD): 0/21 (0%)
Rash: # Events (Cohort 3 400 mg QD): 1
Rash: Affected/At Risk (%) (Cohort 3 400 mg QD): 1/21 (4.76%)
Red blood cells urine positive: # Events (Cohort 3 400 mg QD): 0
Red blood cells urine positive: Affected/At Risk (%) (Cohort 3 400 mg QD): 0/21 (0%)
Renal failure: # Events (Cohort 3 400 mg QD): 0
Renal failure: Affected/At Risk (%) (Cohort 3 400 mg QD): 0/21 (0%)
Respiratory syncytial virus infection: # Events (Cohort 3 400 mg QD): 3
Respiratory syncytial virus infection: Affected/At Risk (%) (Cohort 3 400 mg QD): 2/21 (9.52%)
Respiratory tract infection fungal: # Events (Cohort 3 400 mg QD): 0
Respiratory tract infection fungal: Affected/At Risk (%) (Cohort 3 400 mg QD): 0/21 (0%)
Respiratory tract infection: # Events (Cohort 3 400 mg QD): 0
Respiratory tract infection: Affected/At Risk (%) (Cohort 3 400 mg QD): 0/21 (0%)
Restless legs syndrome: # Events (Cohort 3 400 mg QD): 0
Restless legs syndrome: Affected/At Risk (%) (Cohort 3 400 mg QD): 0/21 (0%)
Rosacea: # Events (Cohort 3 400 mg QD): 0
Rosacea: Affected/At Risk (%) (Cohort 3 400 mg QD): 0/21 (0%)
SAE, No. (%) (Cohort 3 400 mg QD): 12 (57)
Sinus pain: # Events (Cohort 3 400 mg QD): 0
Sinus pain: Affected/At Risk (%) (Cohort 3 400 mg QD): 0/21 (0%)
Sinusitis: # Events (Cohort 3 400 mg QD): 1
Sinusitis: Affected/At Risk (%) (Cohort 3 400 mg QD): 1/21 (4.76%)
Skin abrasion: # Events (Cohort 3 400 mg QD): 2
Skin abrasion: Affected/At Risk (%) (Cohort 3 400 mg QD): 2/21 (9.52%)
Skin lesion: # Events (Cohort 3 400 mg QD): 0
Skin lesion: Affected/At Risk (%) (Cohort 3 400 mg QD): 0/21 (0%)
Skin papilloma: # Events (Cohort 3 400 mg QD): 0
Skin papilloma: Affected/At Risk (%) (Cohort 3 400 mg QD): 0/21 (0%)
Spinal compression fracture: # Events (Cohort 3 400 mg QD): 0
Spinal compression fracture: Affected/At Risk (%) (Cohort 3 400 mg QD): 0/21 (0%)
Squamous cell carcinoma of skin: # Events (Cohort 3 400 mg QD): 0
Squamous cell carcinoma of skin: Affected/At Risk (%) (Cohort 3 400 mg QD): 0/21 (0%)
Stomatitis: # Events (Cohort 3 400 mg QD): 1
Stomatitis: Affected/At Risk (%) (Cohort 3 400 mg QD): 1/21 (4.76%)
Superior vena cava syndrome: # Events (Cohort 3 400 mg QD): 0
Superior vena cava syndrome: Affected/At Risk (%) (Cohort 3 400 mg QD): 1/21 (4.76%)
TEAE, participants (%) (Cohort 3 400 mg QD): 20 (95%) participants
TESAE, participants (%) (Cohort 3 400 mg QD): 13 (62%) participants
Tachycardia: # Events (Cohort 3 400 mg QD): 2
Tachycardia: Affected/At Risk (%) (Cohort 3 400 mg QD): 2/21 (9.52%)
Tendonitis: # Events (Cohort 3 400 mg QD): 0
Tendonitis: Affected/At Risk (%) (Cohort 3 400 mg QD): 0/21 (0%)
Testicular pain: # Events (Cohort 3 400 mg QD): 0
Testicular pain: Affected/At Risk (%) (Cohort 3 400 mg QD): 0/21 (0%)
Testicular swelling: # Events (Cohort 3 400 mg QD): 0
Testicular swelling: Affected/At Risk (%) (Cohort 3 400 mg QD): 0/21 (0%)
Thoracic spinal stenosis: # Events (Cohort 3 400 mg QD): 0
Thoracic spinal stenosis: Affected/At Risk (%) (Cohort 3 400 mg QD): 0/21 (0%)
Thrombocytopenia: # Events (Cohort 3 400 mg QD): 1
Thrombocytopenia: Affected/At Risk (%) (Cohort 3 400 mg QD): 1/21 (4.76%)
Thrombocytosis: # Events (Cohort 3 400 mg QD): 0
Thrombocytosis: Affected/At Risk (%) (Cohort 3 400 mg QD): 0/21 (0%)
Tinea pedis: # Events (Cohort 3 400 mg QD): 0
Tinea pedis: Affected/At Risk (%) (Cohort 3 400 mg QD): 0/21 (0%)
Tooth fracture: # Events (Cohort 3 400 mg QD): 0
Tooth fracture: Affected/At Risk (%) (Cohort 3 400 mg QD): 0/21 (0%)
Total other adverse events: Affected/At Risk (%) (Cohort 3 400 mg QD): 19/21 (90.48%)
Transfusion reaction: # Events (Cohort 3 400 mg QD): 0
Transfusion reaction: Affected/At Risk (%) (Cohort 3 400 mg QD): 0/21 (0%)
Tremor: # Events (Cohort 3 400 mg QD): 4
Tremor: Affected/At Risk (%) (Cohort 3 400 mg QD): 3/21 (14.29%)
Type 2 diabetes mellitus: # Events (Cohort 3 400 mg QD): 0
Type 2 diabetes mellitus: Affected/At Risk (%) (Cohort 3 400 mg QD): 0/21 (0%)
Ulcerative keratitis: # Events (Cohort 3 400 mg QD): 0
Ulcerative keratitis: Affected/At Risk (%) (Cohort 3 400 mg QD): 0/21 (0%)
Upper respiratory tract infection: # Events (Cohort 3 400 mg QD): 9
Upper respiratory tract infection: Affected/At Risk (%) (Cohort 3 400 mg QD): 7/21 (33.33%)
Upper-airway cough syndrome: # Events (Cohort 3 400 mg QD): 1
Upper-airway cough syndrome: Affected/At Risk (%) (Cohort 3 400 mg QD): 1/21 (4.76%)
Urinary retention: # Events (Cohort 3 400 mg QD): 0
Urinary retention: Affected/At Risk (%) (Cohort 3 400 mg QD): 0/21 (0%)
Urinary tract infection: # Events (Cohort 3 400 mg QD): 0
Urinary tract infection: Affected/At Risk (%) (Cohort 3 400 mg QD): 0/21 (0%)
Urinary tract pain: # Events (Cohort 3 400 mg QD): 1
Urinary tract pain: Affected/At Risk (%) (Cohort 3 400 mg QD): 1/21 (4.76%)
Urine output decreased: # Events (Cohort 3 400 mg QD): 0
Urine output decreased: Affected/At Risk (%) (Cohort 3 400 mg QD): 0/21 (0%)
Vascular access complication: # Events (Cohort 3 400 mg QD): 0
Vascular access complication: Affected/At Risk (%) (Cohort 3 400 mg QD): 0/21 (0%)
Vertigo: # Events (Cohort 3 400 mg QD): 0
Vertigo: Affected/At Risk (%) (Cohort 3 400 mg QD): 0/21 (0%)
Vision blurred: # Events (Cohort 3 400 mg QD): 4
Vision blurred: Affected/At Risk (%) (Cohort 3 400 mg QD): 4/21 (19.05%)
Vomiting: # Events (Cohort 3 400 mg QD): 4
Vomiting: Affected/At Risk (%) (Cohort 3 400 mg QD): 4/21 (19.05%)
Weight decreased: # Events (Cohort 3 400 mg QD): 4
Weight decreased: Affected/At Risk (%) (Cohort 3 400 mg QD): 2/21 (9.52%)
Weight increased: # Events (Cohort 3 400 mg QD): 4
Weight increased: Affected/At Risk (%) (Cohort 3 400 mg QD): 1/21 (4.76%)
White blood cell count decreased: # Events (Cohort 3 400 mg QD): 2
White blood cell count decreased: Affected/At Risk (%) (Cohort 3 400 mg QD): 1/21 (4.76%)
cytomegalovirus (CMV) infection or reactivation (Example 1): No cases; also recorded: no reported CMV infection or reactivation
deaths attributed to belumosudil (Example 1): none of the deaths attributed to belumosudil
dose response with respect to observed AEs (Example 1): no dose response
median duration of dose interruption (Example 1): 10 days
median duration of dose reduction (Example 1): 97 days
patients who discontinued because of potentially drug-related AEs (Example 1): Three
patients with dose interruptions (Example 1): 41%
patients with dose reductions (Example 1): 9%
tolerability (Example 1): well-tolerated
grade ≥3 cytopenias (Example 1, N=54): 4%
grade ≥3 dyspnea (Example 1, N=54): 13%
grade ≥3 hyperglycemia (Example 1, N=54): 7%
grade ≥3 hypoxia (Example 1, N=54): 7%
grade ≥3 increased liver function tests (Example 1, N=54): 7%
patients with a grade ≥3 AE (Example 1, N=54): Sixty-one
patients with cough (Example 1, N=54): 22%
patients with diarrhea (Example 1, N=54): 33%
patients with dyspnea (Example 1, N=54): 30%
patients with fatigue (Example 1, N=54): 33%
patients with headache (Example 1, N=54): 24%
patients with hypertension (Example 1, N=54): 20%
patients with increased liver function tests (Example 1, N=54): 33%
patients with nausea (Example 1, N=54): 33%
patients with peripheral edema (Example 1, N=54): 24%
patients with serious AEs (Example 1, N=54): 43%
patients with upper respiratory infection (Example 1, N=54): 46%
serious AE dyspnea (Example 1, N=54): 7%
serious AE hypoxia (Example 1, N=54): 4%
serious AE influenza-like illness (Example 1, N=54): 4%
serious AE lung infection (Example 1, N=54): 6%
patients who died during the study (Example 1, all in cohort 3): Four
All grade ALT/AST increased, No. (%) (Total, N=54): 18 (33)
All grade Cough, No. (%) (Total, N=54): 12 (22)
All grade Diarrhea, No. (%) (Total, N=54): 18 (33)
All grade Dyspnea, No. (%) (Total, N=54): 16 (30)
All grade Fatigue, No. (%) (Total, N=54): 18 (33)
All grade Headache, No. (%) (Total, N=54): 13 (24)
All grade Hypertension, No. (%) (Total, N=54): 11 (20)
All grade Nausea, No. (%) (Total, N=54): 18 (33)
All grade Peripheral edema, No. (%) (Total, N=54): 13 (24)
All grade URI, No. (%) (Total, N=54): 25 (46)
Any AE, No. (%) (Total, N=54): 53 (98)
Death, No. (%) (Total, N=54): 2 (4)
Drug-related AE, No. (%) (Total, N=54): 30 (56)
Drug-related SAE, No. (%) (Total, N=54): 0
Grade ≥3 AE, No. (%) (Total, N=54): 33 (61)
Grade ≥3 ALT/AST increased, No. (%) (Total, N=54): 4 (7)
Grade ≥3 Anemia, No. (%) (Total, N=54): 3 (6)
Grade ≥3 Dyspnea, No. (%) (Total, N=54): 7 (13)
Grade ≥3 Hyperglycemia, No. (%) (Total, N=54): 4 (7)
Grade ≥3 Hypoxia, No. (%) (Total, N=54): 4 (7)
Grade ≥3 Lung infection or pneumonia, No. (%) (Total, N=54): 5 (9)
SAE, No. (%) (Total, N=54): 23 (43)
